Source: patent US20230192691A1, “HETEROCYCLIC COMPOUNDS AS BTK INHIBITORS” (Beijing InnoCare Pharma Tech Co., Ltd., priority 2020, published 2023)
pIC50: −log10 of the molar value.

Tests used:
[1] = target: T1, human-derived recombinant BTK protein (Homo sapiens, UniProt Q06187); assay: BTK activity inhibition assay (HTRF in vitro kinase assay); assay type: biochemical; settings: 40 μM ATP, 0.2 ng/μL BTK
T1 construct: purchased Carna Biosciences 08-180
Procedure: In vitro kinase assay was used to evaluate the effects of compounds of the present invention on BTK activity (Table 1).
(§1) By using the homogeneous time-resolved fluorescence (HTRF) kinase detection kit (Cisbio, catalog number 62TK0PEC), the enzymatic activity of BTK is determined by detecting the phosphorylation level of the substrate in the kinase reaction. The reaction buffer contains the enzyme reaction buffer (1×) from the kit, 5 mM MgCl2, 1 mM DTT, 10 nM SEB and 0.01% Tween-20; the kinase reaction solution contains human-derived recombinant BTK protein (Carna Biosciences, Catalog No. 08-180) diluted to 0.2 ng/μL with the reaction buffer; the substrate reaction solution contains biotin-labeled tyrosine kinase substrate diluted to 0.5 μM with the reaction buffer and 40 μM ATP; the detection buffer contains Eu^3+-labeled cage antibody diluted to 0.05 ng/μL and streptavidin-labeled XL665 antibody diluted to 31.25 nM with the reaction buffer; the test compound is dissolved and diluted to 100 μM with DMSO, followed by a 4-fold serial dilution with DMSO to the lowest concentration of 6.1 nM and finally 40-time dilution with the reaction buffer for each concentration point. If the IC50 value of the compound is very low, the initial concentration of the compound is reduced.
(§2) Add 4 μL test compound solution and 2 μL kinase reaction solution to a 384-well detection plate (Corning, catalog number 3674), mix well and incubate at room temperature for 15 minutes; add 4 μL substrate reaction solution and incubate for 50 minutes; add 10 μL detection buffer, mix well and stand for 60 minutes; detect signal at 620 nm and 665 nm using an Envision plate reader (Perkin Elmer). The signal value (absorbance at 665 nm/absorbance at 620 nm) is positively correlated with the degree of phosphorylation of the substrate, thereby detecting the kinase activity of BTK. In this experiment, the group without BTK is the negative control (100% inhibition) and the group with BTK but no compound is the positive control (0% inhibition). The inhibition curve is plotted and the corresponding IC50 value of the test compound is calculated using XLfit software (ID Business Solutions Ltd., UK).

[2] = target: T2, human recombinant BTK C481S protein (Homo sapiens, UniProt Q06187, C481S); assay: BTK C481S activity inhibition assay (HTRF in vitro kinase assay); assay type: biochemical; settings: 35 μM ATP, 1.5 ng/μL BTK C481S
T2 construct: made in house
Procedure: In vitro kinase assay was used to evaluate the effects of compounds of the present invention on BTK C481S activity (Table 1).
as §1, with “BTK C481S” for “BTK”, “nM SEB,” for “nM SEB”, “contains human” for “contains human-derived”, “protein (purified in-house)” for “protein (Carna Biosciences, Catalog No. 08-180)”, “to 1.5” for “to 0.2”, “and 35” for “and 40”
as §2, with “activity of BTK C481S. In this” for “activity of BTK. In this”, “with BTK C481 S but no” for “with BTK but no”, “XLfit software (TD Business Solutions” for “XLfit software (ID Business Solutions”

T2 sequence (Q06187 whole entry C481S): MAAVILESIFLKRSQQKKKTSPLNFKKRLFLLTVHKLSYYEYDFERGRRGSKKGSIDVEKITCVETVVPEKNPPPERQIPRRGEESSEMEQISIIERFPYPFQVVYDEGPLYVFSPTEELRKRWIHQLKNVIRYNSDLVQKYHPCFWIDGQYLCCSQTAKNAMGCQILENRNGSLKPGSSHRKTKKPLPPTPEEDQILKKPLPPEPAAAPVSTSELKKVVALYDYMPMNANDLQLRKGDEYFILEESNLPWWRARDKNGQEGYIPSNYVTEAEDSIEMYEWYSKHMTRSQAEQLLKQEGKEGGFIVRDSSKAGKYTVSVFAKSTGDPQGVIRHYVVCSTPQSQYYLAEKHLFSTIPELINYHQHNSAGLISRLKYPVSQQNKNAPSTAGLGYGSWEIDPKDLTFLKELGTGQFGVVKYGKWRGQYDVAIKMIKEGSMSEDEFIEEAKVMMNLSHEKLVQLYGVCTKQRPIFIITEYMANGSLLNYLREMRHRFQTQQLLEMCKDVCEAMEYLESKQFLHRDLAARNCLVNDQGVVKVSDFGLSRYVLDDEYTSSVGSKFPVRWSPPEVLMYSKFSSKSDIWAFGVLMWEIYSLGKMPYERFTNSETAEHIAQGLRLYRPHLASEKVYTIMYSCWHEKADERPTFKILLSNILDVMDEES
T1 sequence (Q06187 whole entry): as the sequence (Q06187 whole entry C481S) above, with S481C counted along it

| pIC50 [1] | pIC50 [2] | Structure (SMILES) |
| --- | --- | --- |
| 8.11 | 8.80 | COc1ccc(F)cc1C(=O)NCc1ccc(-c2nc([C@]3(C)CC[C@](C)(C(=O)O)CC3)n3ncnc(N)c23)cc1 [Compound 46, (1s,4s)-4-(4-amino-5-(4-((5-fluoro-2-methoxybenzamido)methyl)phenyl)imidazo[5,1-f][1,2,4]triazin-7-yl)-1,4-dimethylcyclohexane-1-carboxylic acid] |
| 9.22 | 8.82 | COc1ccc(F)cc1C(=O)NCc1ccc(-c2nc(C34CCC(CO)(CC3)CC4)n3ccnc(N)c23)cc1 [Compound 35, N-(4-(8-amino-3-(4-(hydroxymethyl)bicyclo[2.2.2]octan-1-yl)imidazo[1,5-a]pyrazin-1-yl)benzyl)-5-fluoro-2-methoxybenzamide] |
| 8.74 | 8.96 | COc1ccc(F)cc1C(=O)NCc1ccc(-c2nc(C3CCCOC3)n3ncnc(N)c23)cc1 (stereo not drawn) [Compound 16, N-(4-(4-amino-7-(tetrahydro-2H-pyran-3-yl)imidazo[5,1-f][1,2,4]triazin-5-yl)benzyl)-5-fluoro-2-methoxybenzamide] |
| 8.25 | 7.68 | COc1ccc(F)cc1C(=O)NCc1ccc(-n2c(=O)n(C(C)C(F)(F)F)c3ncnc(N)c32)cc1 (stereo not drawn) [Compound 53, N-(4-(6-amino-8-oxo-9-(1,1,1-trifluoropropan-2-yl)-8,9-dihydro-7H-purin-7-yl)benzyl)-5-fluoro-2-methoxybenzamide] |
| 8.57 | 8.27 | COc1ccc(F)cc1C(=O)NCc1ccc(-c2nc(C3(C(F)(F)F)CC3)n3ncnc(N)c23)cc1 [Compound 43, N-(4-(4-amino-7-(1-(trifluoromethyl)cyclopropyl)imidazo[5,1-f][1,2,4]triazin-5-yl)benzyl)-5-fluoro-2-methoxybenzamide] |
| 8.24 | 8.21 | COc1ccc(F)cc1C(=O)NCc1ccc(-n2c(=O)n(C34CCC(C(=O)N5CCOCC5)(CC3)CC4)c3ncnc(N)c32)cc1 [Compound 54, N-(4-(6-amino-9-(4-(morpholine-4-carbonyl)bicyclo[2.2.2]octan-1-yl)-8-oxo-8,9-dihydro-7H-purin-7-yl)benzyl)-5-fluoro-2-methoxybenzamide] |
| 8.47 | 8.77 | COc1ccc(F)cc1C(=O)NCc1ccc(-c2nc([C@H]3CC[C@H](CN)CC3)n3ccnc(N)c23)cc1 [Compound 7, N-(4-(8-amino-3-((1r,4r)-4-(aminomethyl)cyclohexyl)imidazo[1,5-a]pyrazin-1-yl)benzyl)-5-fluoro-2-methoxybenzamide] |
| 8.59 | 8.28 | COc1ccc(F)cc1C(=O)NCc1ccc(-c2nc([C@]3(C)CC[C@](C)(C(=O)O)CC3)n3ccnc(N)c23)cc1 [Compound 41, (1s,4s)-4-(8-amino-1-(4-((5-fluoro-2-methoxybenzamido)methyl)phenyl)imidazo[1,5-a]pyrazin-3-yl)-1,4-dimethylcyclohexane-1-carboxylic acid] |
| 8.42 | 7.96 | COc1ccc(F)cc1C(=O)NCc1ccc(-c2nc(C(C)C(F)(F)F)n3ncnc(N)c23)cc1 (stereo not drawn) [Compound 26, N-(4-(4-amino-7-(1,1,1-trifluoropropan-2-yl)imidazo[5,1-f][1,2,4]triazin-5-yl)benzyl)-5-fluoro-2-methoxybenzamide] |
| 9.05 | 8.82 | COc1ccc(F)cc1C(=O)NCc1ccc(-c2nc(C34CCC(C(=O)O)(CC3)CC4)n3ccnc(N)c23)cc1 [Compound 34, 4-(8-amino-1-(4-((5-fluoro-2-methoxybenzamido)methyl)phenyl)imidazo[1,5-a]pyrazin-3-yl)bicyclo[2.2.2]octane-1-carboxylic acid] |
| 8.52 | – | COc1ccc(F)cc1C(=O)NCc1ccc(-c2nc(C3CCCC3)n3ncnc(N)c23)cc1 [Compound 12, N-(4-(4-amino-7-cyclopentylimidazo[5,1-f][1,2,4]triazin-5-yl)benzyl)-5-fluoro-2-methoxybenzamide] |
